Source: patent US12110276B2 (Genentech, Inc., priority 2021, dated 2024)
Where a name gives a salt, the structure may show the parent alone.

How the values were obtained:
[1] = target: TEAD2 (Homo sapiens (Human), UniProt Q15562);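 also: TR-FRET competition assay with His-tagged TEAD protein and a biotinylated lipid pocket probe, compound pre-incubated 30 min or 4 h at room temperature, displacement lowers signal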
[2] = target: TEAD1 (Homo sapiens (Human), UniProt P28347); test: TR-FRET lipid pocket probe competition assay (Lipid HTRF), TEAD1; assay type: binding; details: 4 hours pre-incubation; read-out: Lipid HTRF TEAD1 IC50;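 also: His-tagged TEAD1 with biotinylated probe, detected via Europium anti-His and XL665 streptavidin, probe displacement lowers TR-FRET signal, IC50 from four-parameter nonlinear fit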
[3] = target: TEAD3 (Homo sapiens (Human), UniProt Q99594); test: TR-FRET lipid pocket probe competition assay (Lipid HTRF), TEAD3; assay type: binding; details: 4 hours pre-incubation; read-out: Lipid HTRF TEAD3 IC50
Experimental: His-tagged TEAD proteins are pre-incubated with TEAD project compounds for 30 minutes or 4 hours at room temperature. Biotinylated lipid pocket probes are then added to the TEAD/Compound mixture and incubated for 60 minutes at room temperature. The lipid pocket probe competes with the test compound for the TEAD lipid pocket until equilibrium is reached. After 60 minutes, Europium labelled anti-His (Perkin Elmer #AD0110) and XL665 labelled streptavidin (CIS Bio 610SAXAC) are added to the TEAD/test compound/lipid pocket mixture and incubated for 30 minutes or 4 hours. […] If a TEAD lipid pocket binder such as binds and displaces the lipid pocket probe, the disruption of the TEAD:probe interaction results in a decrease in TR-FRET signal. The potency of compounds as TEAD lipid pocket binders is determined by IC50 value generated using a non-linear 4 parameter curve fit.

[4] = target: TEAD4 (Homo sapiens (Human), UniProt Q15561); test: TR-FRET lipid pocket probe competition assay (Lipid HTRF), TEAD4; assay type: binding; details: 4 hours pre-incubation; read-out: Lipid HTRF TEAD4 IC50;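 also: His-tagged TEAD4 with biotinylated lipid-pocket probe, read by Europium anti-His and XL665 streptavidin, where probe displacement lowers the TR-FRET signal, IC50 from a four-parameter fit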
Chain of TEAD4 (Q15561 whole entry, species assumed): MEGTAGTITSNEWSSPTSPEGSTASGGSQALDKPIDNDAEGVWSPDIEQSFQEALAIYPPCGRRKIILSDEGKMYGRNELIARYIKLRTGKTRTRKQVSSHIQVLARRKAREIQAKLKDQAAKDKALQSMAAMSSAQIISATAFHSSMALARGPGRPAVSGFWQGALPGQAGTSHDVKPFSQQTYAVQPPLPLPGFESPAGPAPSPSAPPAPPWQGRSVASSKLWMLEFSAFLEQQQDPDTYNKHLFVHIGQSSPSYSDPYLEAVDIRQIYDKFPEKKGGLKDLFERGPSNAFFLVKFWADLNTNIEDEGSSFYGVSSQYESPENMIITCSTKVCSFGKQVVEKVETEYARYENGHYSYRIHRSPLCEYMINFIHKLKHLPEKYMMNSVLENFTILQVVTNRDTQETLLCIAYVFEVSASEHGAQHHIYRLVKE

Chain of TEAD3 (Q99594 whole entry, species assumed): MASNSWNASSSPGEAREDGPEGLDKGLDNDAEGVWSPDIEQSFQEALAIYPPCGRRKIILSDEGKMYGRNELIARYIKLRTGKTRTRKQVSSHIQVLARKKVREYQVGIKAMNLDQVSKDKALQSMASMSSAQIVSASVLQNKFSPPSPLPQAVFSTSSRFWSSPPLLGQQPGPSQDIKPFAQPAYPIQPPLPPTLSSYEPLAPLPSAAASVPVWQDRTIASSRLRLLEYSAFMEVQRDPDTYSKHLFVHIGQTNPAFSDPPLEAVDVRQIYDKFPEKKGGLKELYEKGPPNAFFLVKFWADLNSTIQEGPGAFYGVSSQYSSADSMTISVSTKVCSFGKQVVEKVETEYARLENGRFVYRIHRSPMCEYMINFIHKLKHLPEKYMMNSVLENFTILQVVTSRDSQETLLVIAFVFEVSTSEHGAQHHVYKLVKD
Chain of TEAD2 (Q15562 whole entry, species assumed): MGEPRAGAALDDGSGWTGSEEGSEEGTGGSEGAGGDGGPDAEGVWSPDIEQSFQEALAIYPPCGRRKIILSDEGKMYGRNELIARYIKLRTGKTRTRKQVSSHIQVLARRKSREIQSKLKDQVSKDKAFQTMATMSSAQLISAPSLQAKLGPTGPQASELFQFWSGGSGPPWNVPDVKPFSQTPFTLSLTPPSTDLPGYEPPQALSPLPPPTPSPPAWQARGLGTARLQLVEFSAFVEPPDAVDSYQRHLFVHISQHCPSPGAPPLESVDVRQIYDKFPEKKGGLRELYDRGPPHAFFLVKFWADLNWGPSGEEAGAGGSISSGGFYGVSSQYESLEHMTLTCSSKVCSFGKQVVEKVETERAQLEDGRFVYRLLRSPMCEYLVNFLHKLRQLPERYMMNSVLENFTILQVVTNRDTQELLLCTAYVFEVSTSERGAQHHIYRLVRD
Chain of TEAD1 (P28347 whole entry, species assumed): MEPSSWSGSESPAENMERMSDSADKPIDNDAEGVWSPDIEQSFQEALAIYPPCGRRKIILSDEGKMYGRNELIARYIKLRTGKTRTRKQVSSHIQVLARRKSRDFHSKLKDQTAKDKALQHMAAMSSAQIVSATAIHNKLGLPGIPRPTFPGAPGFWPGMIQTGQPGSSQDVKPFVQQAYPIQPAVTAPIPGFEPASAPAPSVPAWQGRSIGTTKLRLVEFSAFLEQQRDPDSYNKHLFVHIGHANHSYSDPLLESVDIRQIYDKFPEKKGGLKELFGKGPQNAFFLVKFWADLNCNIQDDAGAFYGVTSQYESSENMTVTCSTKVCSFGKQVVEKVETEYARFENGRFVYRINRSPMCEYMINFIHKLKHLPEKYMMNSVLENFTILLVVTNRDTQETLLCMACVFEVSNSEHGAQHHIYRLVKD

| SMILES | IC50 [1] [nM] | IC50 [2] [nM] | IC50 [3] [nM] | IC50 [4] [nM] |
| --- | --- | --- | --- | --- |
| C=CC(=O)NCc1nn(-c2ccc(OC(F)(F)F)cc2)c2nccc(N3CC([C@@H](C)O)C3)c12 (stereo in doubt) [Compound 123, N-((4-(3-(1-hydroxyethyl)azetidin-1-yl)-1-(4-(trifluoromethoxy)phenyl)-1H-pyrazolo[3,4-b]pyridin-3-yl)methyl)acrylamide] | 180 | – | – | – |
| C=CC(=O)NCc1nn(-c2ccc(OC(F)(F)F)cc2)c2nccc(N3CC([C@H](C)O)C3)c12 (stereo in doubt) [Compound 138, N-((4-(3-(1-hydroxyethyl)azetidin-1-yl)-1-(4-(trifluoromethoxy)phenyl)-1H-pyrazolo[3,4-b]pyridin-3-yl)methyl)acrylamide] | 290 | – | – | – |
| C=C(C)C(=O)N1CC(c2nn(-c3ccc(OC(F)(F)F)cc3)c3nccc(CO)c23)C1 [Compound 22, 1-(3-(4-(Hydroxymethyl)-1-(4-(trifluoromethoxy)phenyl)-1H-pyrazolo[3,4-b]pyridin-3-yl)azetidin-1-yl)-2-methylprop-2-en-1-one] | 250 | 33 | 300 | – |
| C/C=C/C(=O)NCc1nn(-c2ccc(OC(F)(F)F)cc2)c2nccc(CO)c12 [Compound 61, (E)-N-((4-(Hydroxymethyl)-1-(4-(trifluoromethoxy)phenyl)-1H-pyrazolo[3,4-b]pyridin-3-yl)methyl)but-2-enamide] | 2300 | – | 50000 | – |
| O=C(C1=CCC1)N1CC(c2nn(-c3ccc(OC(F)(F)F)cc3)c3nccc([C@H](O)CO)c23)C1 [Compound 72, (S)-Cyclobut-1-en-1-yl(3-(4-(1,2-dihydroxyethyl)-1-(4-(trifluoromethoxy)phenyl)-1H-pyrazolo[3,4-b]pyridin-3-yl)azetidin-1-yl)methanone] | 7.5 | – | 19 | – |
| C=CC(=O)NCc1nn(-c2ccc(OC(F)(F)F)cc2)c2nccc(N(C)[C@H]3C[C@H](O)C3)c12 [Compound 90, N-((4-((3-hydroxycyclobutyl)(methyl)amino)-1-(4-(trifluoromethoxy)phenyl)-1H-pyrazolo[3,4-b]pyridin-3-yl)methyl)acrylamide] | – | – | 3700 | 9.9 |
| O=C(/C=C/CO)N1CC(c2nn(-c3ccc(OC(F)(F)F)cc3)c3nccc(CO)c23)C1 [Compound 94, (E)-4-Hydroxy-1-(3-(4-(hydroxymethyl)-1-(4-(trifluoromethoxy)phenyl)-1H-pyrazolo[3,4-b]pyridin-3-yl)azetidin-1-yl)but-2-en-1-one] | 29 | 15 | – | – |
| O=C(/C=C/CO)N1CC(c2nn(-c3ccc(OC(F)(F)F)cc3)c3nccc([C@@H](O)CO)c23)C1 [Compound 95, (R,E)-1-(3-(4-(1,2-dihydroxyethyl)-1-(4-(trifluoromethoxy)phenyl)-1H-pyrazolo[3,4-b]pyridin-3-yl)azetidin-1-yl)-4-hydroxybut-2-en-1-one] | 27 | – | 92 | – |
| CC#CC(=O)NCc1nn(-c2ccc(OC(F)(F)F)cc2)c2nccc(CO)c12 [Compound 98, N-((4-(Hydroxymethyl)-1-(4-(trifluoromethoxy)phenyl)-1H-pyrazolo[3,4-b]pyridin-3-yl)methyl)but-2-ynamide] | 75 | 32 | 460 | – |
| O=C(/C=C/CO)N1CC(c2nn(-c3ccc(OC(F)(F)F)cc3)c3nccc([C@H](O)CO)c23)C1 [Compound 108, (S,E)-1-(3-(4-(1,2-Dihydroxyethyl)-1-(4-(trifluoromethoxy)phenyl)-1H-pyrazolo[3,4-b]pyridin-3-yl)azetidin-1-yl)-4-hydroxybut-2-en-1-one] | 120 | – | 140 | – |
| O=C(C1=CCC1)N1CC(c2nn(-c3ccc(OC(F)(F)F)cc3)c3nccc([C@@H](O)CO)c23)C1 [Compound 115, (R)-cyclobut-1-en-1-yl(3-(4-(1,2-dihydroxyethyl)-1-(4-(trifluoromethoxy)phenyl)-1H-pyrazolo[3,4-b]pyridin-3-yl)azetidin-1-yl)methanone] | 6 | – | 11 | – |
| C=CC(=O)NCc1nn(-c2ccc(OC(F)(F)F)cc2)c2nccc(N(C)[C@H]3C[C@@H](O)C3)c12 [Compound 117, N-((4-((3-hydroxycyclobutyl)(methyl)amino)-1-(4-(trifluoromethoxy)phenyl)-1H-pyrazolo[3,4-b]pyridin-3-yl)methyl)acrylamide] | – | – | 16000 | 33 |
| O=C(/C=C/CF)NCc1nn(-c2ccc(OC(F)(F)F)cc2)c2nccc(CO)c12 [Compound 121, (E)-4-Fluoro-N-((4-(hydroxymethyl)-1-(4-(trifluoromethoxy)phenyl)-1H-pyrazolo[3,4-b]pyridin-3-yl)methyl)but-2-enamide] | 68 | 21 | 350 | – |
| C=CC(=O)NCc1nn(-c2ccc(OC(F)(F)F)cc2)c2nccc([C@H](O)COC(=O)CN)c12 [Compound 145, (S)-2-(3-(Acrylamidomethyl)-1-(4-(trifluoromethoxy)phenyl)-1H-pyrazolo[3,4-b]pyridin-4-yl)-2-hydroxyethyl 2-aminoacetate formate] | 71 | 140 | – | 49 |
| C=CC(=O)NCc1nn(-c2ccc(OC(F)(F)F)cc2)c2nccc([C@H](O)COP(=O)(O)O)c12 [Compound 147, (S)-2-(3-(Acrylamidomethyl)-1-(4-(trifluoromethoxy)phenyl)-1H-pyrazolo[3,4-b]pyridin-4-yl)-2-hydroxyethyl dihydrogen phosphate] | – | – | – | 36000 |
| O=C(NCc1nn(-c2ccc(OC(F)(F)F)cc2)c2nccc(CO)c12)C1=CCOC1 [Compound 149, N-((4-(Hydroxymethyl)-1-(4-(trifluoromethoxy)phenyl)-1H-pyrazolo[3,4-b]pyridin-3-yl)methyl)-2,5-dihydrofuran-3-carboxamide] | – | 910 | – | – |
| O=C(N1CC(c2nn(-c3ccc(OC(F)(F)F)cc3)c3nccc(CO)c23)C1)C12CC1C2 (stereo not drawn) [Compound 153, Bicyclo[1.1.0]butan-1-yl(3-(4-(hydroxymethyl)-1-(4-(trifluoromethoxy)phenyl)-1H-pyrazolo[3,4-b]pyridin-3-yl)azetidin-1-yl)methanone] | 290 | 580 | 50000 | – |
| O=C(C1=CCC1)N1CC(c2nn(-c3ccc(OC(F)(F)F)cc3)c3nccc([C@@H](O)CO)c23)C1 [Compound 157, (R)-Cyclobut-1-en-1-yl(3-(4-(1,2-dihydroxyethyl)-1-(4-(trifluoromethoxy)phenyl)-1H-pyrazolo[3,4-b]pyridin-3-yl)azetidin-1-yl)methanone] | 5.7 | – | 17 | – |
| C/C=C/S(=O)(=O)N1CC(c2nn(-c3ccc(OC(F)(F)F)cc3)c3nccc([C@H](O)CO)c23)C1 [Compound 161, (S,E)-1-(3-(1-(Prop-1-en-1-ylsulfonyl)azetidin-3-yl)-1-(4-(trifluoromethoxy)phenyl)-1H-pyrazolo[3,4-b]pyridin-4-yl)ethane-1,2-diol] | 3.4 | – | – | – |
| C/C=C/S(=O)(=O)N1CC(c2nn(-c3ccc(OC(F)(F)F)cc3)c3nccc([C@@H](O)CO)c23)C1 [Compound 162, (R,E)-1-(3-(1-(prop-1-en-1-ylsulfonyl)azetidin-3-yl)-1-(4-(trifluoromethoxy)phenyl)-1H-pyrazolo[3,4-b]pyridin-4-yl)ethane-1,2-diol] | 10 | – | – | – |
